The test system of this test is Toledo cells. Kind of test: Cell proliferation assay, Toledo cells (MTS, 72 h). In kind it is cell-based. As to conditions: Homo sapiens, Toledo cells, MTS, read-out: Toledo IC50. The protocol: MTS testing kit was purchased from Promega (Madison, Wis., USA). The RPMI-1640, Fetal bovine serum and Penicillin-Streptomycin were purchased from BI (Biological Industries, Beit Haemek, Israel). Dimethyl sulfoxide (DMSO) was purchased from Sigma (St. Louis, Mo., USA). Toledo (ATCC catalog #: CRL-2631) cells were cultured in RPMI-1640 supplemented with Penicillin-Streptomycin and 10% FBS.
To investigate whether a compound is able to inhibit the activity of BCL-2 in cells, a mechanism-based assay using Toledo lines was developed. In this assay, the inhibition of BCL-2 was reflected by the inhibition of cell proliferation of Toledo cells. Cells were plated into 96-well plates at the optimized cell density of 30000 cells/well. Plates were incubated at 37° C., with 5% CO2 for 4h. Compounds were serially diluted and added to the plates with the final concentrations of 10000, 3333.3, 1111.1, 370.4, 123.5, 41.2, 13.7, 4.6 and 1.5 nM. Plates were incubated at 37° C., with 5% CO2 for 72 h. 20 μl MTS was added into each well and the plates were incubated at 37° C., with 5% CO2 for exactly 2 h. The absorbance was measured by a microplate reader at 490 nm. IC50 was calculated using GraphPad Prism 5.0 software.

pIC50: −log10 of the molar value.

In the case of `COC(=O)N1CCN(C2CC3(CCN(c4ccc(C(=O)NS(=O)(=O)c5cc6c(c([N+](=O)[O-])c5)N[C@@H]([C@H]5CC[C@](C)(O)CC5)CO6)c(Oc5cnc6[nH]cc(F)c6c5)c4)CC3)C2)[C@H](c2ccccc2C(C)C)C1` (single isomer, unassigned) [Example D-144, methyl (R or S)-4-(7-(3-((3-fluoro-1H-pyrrolo [2,3-b]pyridin-5-yl)oxy)-4-((S)-3-((1r,4S)-4-hydroxy-4-methylcyclohexyl)-5-nitro-3,4-dihydro-2H-benzo[b][1,4]oxazin-7-yl)sulfonyl)carbamoyl)phenyl)-7-azaspiro[3.5] nonan-2-yl)-3-(2-isopropylphenyl) piperazine-1-carboxylate], the negative-log IC50 (pIC50) was 9.00.
Regarding `CO[C@H]1CC[C@H]([C@@H]2COc3cc(S(=O)(=O)NC(=O)c4ccc(N5CCC6(CC5)CC(N5CCC[C@H]5c5ccccc5C(C)C)C6)cc4Oc4cnc5[nH]cc(F)c5c4)cc([N+](=O)[O-])c3N2)CC1` (single isomer, unassigned) [Example D-45, 2-((3-fluoro-1H-pyrrolo[2,3-b]pyridin-5-yl)oxy)-4-(2-((R or S)-2-(2-isopropylphenyl)pyrrolidin-1-yl)-7-azaspiro[3.5]nonan-7-yl)-N-(((R)-3-((1r,4S)-4-methoxycyclohexyl)-5-nitro-3,4-dihydro-2H-benzo[b][1,4]oxazin-7-yl)sulfonyl)benzamide], the pIC50 was 9.00.
The result for `CC(C)c1ccccc1[C@@H]1COCCN1C1CC2(CCN(c3ccc(C(=O)NS(=O)(=O)c4cnc(NC[C@H]5CC[C@](C)(O)CC5)c([N+](=O)[O-])c4)c(Oc4cc5cc[nH]c5nc4OC(F)F)c3)CC2)C1` (single isomer, unassigned) [Example A-126, 2-((6-(difluoromethoxy)-1H-pyrrolo [2,3-b]pyridin-5-yl)oxy)-N-((6-((((1r,4r)-4-hydroxy-4-methylcyclo-hexyl)methyl)amino)-5-nitropyridin-3-yl)sulfonyl)-4-(2-((R or S)-3-(2-isopropylphenyl)morpholino)-7-azaspiro[3.5]nonan-7-yl) benzamide] reads 9.00; that for `Cc1nc2[nH]ccc2cc1Oc1cc(N2CCC3(CC2)CC(N2CCC[C@H]2c2ccccc2C(C)C)C3)ccc1C(=O)NS(=O)(=O)c1cc2c(c([N+](=O)[O-])c1)N[C@@H]([C@H]1CC[C@](C)(O)CC1)CO2` (single isomer, unassigned) [Example D-39, N-(((S)-3-((1r,4S)-4-hydroxy-4-methylcyclohexyl)-5-nitro-3,4-dihydro-2H-benzo[b][1,4]oxazin-7-yl)sulfonyl)-4-(2-((R or S)-2-(2-isopropylphenyl)pyrrolidin-1-yl)-7-azaspiro[3.5]nonan-7-yl)-2-((6-methyl-1H-pyrrolo[2,3-b]pyridin-5-yl)oxy)benzamide], 9.00; that for `CC(C)c1ccccc1C1=CCCC1N1CC2(CCN(c3ccc(C(=O)NS(=O)(=O)c4cc5c(c([N+](=O)[O-])c4)N[C@@H]([C@H]4CC[C@](C)(O)CC4)CO5)c(Oc4cnc5[nH]cc(F)c5c4)c3)CC2)C1` (stereo partly drawn) [Example D-77, 2-((3-fluoro-1H-pyrrolo[2,3-b]pyridin-5-yl)oxy)-N-(((S)-3-((1r,4S)-4-hydroxy-4-methylcyclohexyl)-5-nitro-3,4-dihydro-2H-benzo[b] [1,4]oxazin-7-yl)sulfonyl)-4-(2-(2-(2-isopropylphenyl)cyclopent-2-en-1-yl)-2,7-diazaspiro[3.5]nonan-7-yl)benzamide], 9.00.
Next, `CC(C)c1ccccc1[C@@H]1CCCN1C1CC2(CCN(c3ccc(C(=O)NS(=O)(=O)c4cc5c(c([N+](=O)[O-])c4)S[C@@H]([C@H]4CC[C@](C)(O)CC4)CO5)c(Oc4cnc5[nH]cc(F)c5c4)c3)CC2)C1` (single isomer, unassigned) [Example E-2, 2-((3-fluoro-1H-pyrrolo[2,3-b]pyridin-5-yl)oxy)-N-(((S)-3-((1r,4S)-4-hydroxy-4-methylcyclohexyl)-5-nitro-2,3-dihydrobenzo[b][1,4]oxathiin-7-yl)sulfonyl)-4-(2-((R or S)-2-(2-isopropylphenyl)pyrrolidin-1-yl)-7-azaspiro[3.5]nonan-7-yl)benzamide]: 9.00; `CC(C)c1ccccc1[C@@H]1CCCN1C1CC2(CCN(c3ccc(C(=O)NS(=O)(=O)c4cc5c(c([N+](=O)[O-])c4)N[C@@H]([C@H]4CC[C@](C)(O)CC4)CO5)c(Oc4cc5cc[nH]c5nc4N4CCC4)c3)CC2)C1` (single isomer, unassigned) [Example D-183, 2-((6-(azetidin-1-yl)-1H-pyrrolo [2,3-b]pyridin-5-yl)oxy)-N-(((S)-3-((1r,4S)-4-hydroxy-4-methylcyclohexyl)-5-nitro-3,4-dihydro-2H-benzo[b][1,4]oxazin-7-yl)sulfonyl)-4-(2-((R or S)-2-(2-isopropylphenyl)pyrrolidin-1-yl)-7-azaspiro[3.5]nonan-7-yl)benzamide]: 9.00.
Next, `CC(C)c1ccccc1[C@@H]1CCCN1C1CC2(CCN(c3ccc(C(=O)NS(=O)(=O)c4cc5c(c([N+](=O)[O-])c4)N[C@@H]([C@H]4CC[C@](C)(O)CC4)CO5)c(Oc4cc5cc[nH]c5nc4OC[C@H]4CCN4C(=O)OC(C)(C)C)c3)CC2)C1` (single isomer, unassigned) [Example D-213, tert-butyl (R)-2-(((5-(2-(((S)-3-((1r,4S)-4-hydroxy-4-methylcyclohexyl)-5-nitro-3,4-dihydro-2H-benzo[b][1,4]oxazin-7-yl)sulfonyl)carbamoyl)-5-(2-((R or S)-2-(2-isopropylphenyl)pyrrolidin-1-yl)-7-azaspiro[3.5]nonan-7-yl)phenoxy)-1H-pyrrolo[2,3-b]pyridin-6-yl)oxy)methyl)azetidine-1-carboxylate]: 9.00; `CC(C)c1ccccc1[C@@H]1CCCN1C1CC2(CCN(c3ccc(C(=O)NS(=O)(=O)c4cc5c(c([N+](=O)[O-])c4)N[C@@H](C4CCC(O)CC4)CO5)c(Oc4cnc5[nH]cc(F)c5c4)c3)CC2)C1` (single isomer, unassigned) [Example D-40, 2-((3-fluoro-1H-pyrrolo[2,3-b]pyridin-5-yl)oxy)-N-(((S)-3-((1s,4R)-4-hydroxycyclohexyl)-5-nitro-3,4-dihydro-2H-benzo[b][1,4]oxazin-7-yl)sulfonyl)-4-(2-((R or S)-2-(2-isopropylphenyl)pyrrolidin-1-yl)-7-azaspiro[3.5]nonan-7-yl)benzamide]: 9.00; `CC(C)c1ccccc1[C@@H]1CCCN1C1CC2(CCN(c3ccc(C(=O)NS(=O)(=O)c4cc5c(c([N+](=O)[O-])c4)N[C@@H]([C@H]4CC[C@](C)(O)CC4)CO5)c(Oc4cc5c(F)c[nH]c5nc4OC[C@H](C)O)c3)CC2)C1` (single isomer, unassigned) [Example D-221, 2-((3-fluoro-6-((S)-2-hydroxypropoxy)-1H-pyrrolo[2,3-b]pyridin-5-yl)oxy)-N-(((S)-3-((1r,4S)-4-hydroxy-4-methylcyclohexyl)-5-nitro-3,4-dihydro-2H-benzo[b][1,4]oxazin-7-yl)sulfonyl)-4-(2-((R or S)-2-(2-isopropylphenyl)pyrrolidin-1-yl)-7-azaspiro[3.5]nonan-7-yl)benzamide]: 9.00.
Turning to `CC(C)c1ccccc1[C@@H]1CCCN1C1CC2(CCN(c3ccc(C(=O)NS(=O)(=O)c4cc5c(c([N+](=O)[O-])c4)N[C@@H](C4CCOCC4)CO5)c(Oc4cnc5[nH]cc(F)c5c4)c3)CC2)C1` (single isomer, unassigned) [Example D-48, 2-((3-fluoro-1H-pyrrolo[2,3-b]pyridin-5-yl)oxy)-4-(2-((R or S)-2-(2-isopropylphenyl)pyrrolidin-1-yl)-7-azaspiro[3.5]nonan-7-yl)-N-(((S)-5-nitro-3-(tetrahydro-2H-pyran-4-yl)-3,4-dihydro-2H-benzo[b][1,4]oxazin-7-yl)sulfonyl) benzamide], the pIC50 was 9.00.
For the molecule `CC(C)c1ccccc1[C@@H]1CCCN1C1CC2(CCN(c3ccc(C(=O)NS(=O)(=O)c4cc5c(c([N+](=O)[O-])c4)N[C@@H](C[C@H]4CC[C@](C)(O)CC4)CO5)c(Oc4cnc5[nH]cc(F)c5c4)c3)CC2)C1` (single isomer, unassigned) [Example D-19, 2-((3-fluoro-1H-pyrrolo[2,3-b]pyridin-5-yl)oxy)-N-(((S)-3-(((1r,4S)-4-hydroxy-4-methylcyclohexyl)methyl)-5-nitro-3,4-dihydro-2H-benzo[b][1,4]oxazin-7-yl)sulfonyl)-4-(2-((R or S)-2-(2-isopropylphenyl)pyrrolidin-1-yl)-7-azaspiro[3.5]nonan-7-yl)benzamide], the pIC50 was 8.05.
The result for `CC(C)c1ccccc1[C@@H]1COCCN1C1CC2(CCN(c3ccc(C(=O)NS(=O)(=O)c4cc5c(c([N+](=O)[O-])c4)N[C@@H]([C@H]4CC[C@](C)(O)CC4)CO5)c(Oc4cnc5[nH]cc(F)c5c4)c3)CC2)C1` (single isomer, unassigned) [Example D-1, 2-((3-fluoro-1H-pyrrolo[2,3-b]pyridin-5-yl)oxy)-N-(((S)-3-((1r,4S)-4-hydroxy-4-methylcyclohexyl)-5-nitro-3,4-dihydro-2H-benzo[b] [1,4]oxazin-7-yl)sulfonyl)-4-(2-((R or S)-3-(2-isopropylphenyl)morpholino)-7-azaspiro[3.5]nonan-7-yl) benzamide] reads 9.00.
